From US10426762B2, “Inhibitors of hepatitis C virus polymerase” (COCRYSTAL DISCOVERY, INC., priority 2012, dated 2019)

Test system: HCV1b replicon
Experiment: HCV replicon assay (Huh-7 cell line with HCV1b replicon containing luciferase reporter) and EC50 determination
Assay type: cell-based
Details: Hepatitis C virus, Huh-7 HCV1b replicon luciferase reporter, 72 hr, triplicate
Procedure: Example 213—HCV Replicon Assay and EC50 Determination
The antiviral activity of compounds against hepatitis C virus was determined by a hepatitis C virus replicon reporter cell line developed by Bartenschlager (Lohmann et al., Science 1999, 285:110-113; Bartenschlager et al., Antiviral Res 2003, 60:91-102). This cell-based assay utilized a liver cell carcinoma (Huh-7) cell line stably transformed with an HCV1b replicon containing a luciferase reporter gene. Varied concentrations of compounds were added to the reporter cell line, and further incubated at 37° C. for 72 hr in DMEM supplemented with 10% FCS. The inhibitory effects of experimental compounds or the reference compound, interferon alpha (INFα), on HCV replication were measured by luciferase activity using the Britelite™ plus luminescence reporter gene kit (Perkin Elmer, Shelton, Conn.). The Britelite plus reagent was added to the 96-well plates containing the HCV reporter cells, and luminescence was measured within 15 min using a Wallac 1450 Microbeta® Trilux liquid scintillation counter. EC50 values were calculated using GraFit 6 and GraphPad Prism 5 from triplicate HCV replicon assays.

| SMILES | EC50 (Table 1) | EC50 (Table 2) |
| --- | --- | --- |
| CC1CCC(C2=C(c3cc(-c4ccc(NC(=O)c5cscn5)c(C#N)c4)sc3C(=O)O)CCN(C)C2)CC1 (centres unmarked) [Example 180, 5-(3-cyano-4-(thiazole-4-carboxamido)phenyl)-3-(1-methyl-5-(4-methylcyclohexyl)-1,2,3,6-tetrahydropyridin-4-yl)thiophene-2-carboxylic acid] | < 3000 nM | – |
| Cc1cc(-c2cc(C3=C(C4CCC(C)CC4)CCN(CCO)C3)c(C(=O)O)s2)ccc1NC(=O)c1cscn1 (centres unmarked) [Example 197, 3-(1-(2-hydroxyethyl)-4-(4-methylcyclohexyl)-1,2,5,6-tetrahydropyridin-3-yl)-5-(3-methyl-4-(thiazole-4-carboxamido)phenyl)thiophene-2-carboxylic acid] | < 3000 nM | – |
| CC1CCC(C2=C(c3cc(-c4ccc(-c5cc6ncccn6n5)cc4)sc3C(=O)O)CN(CC(O)CO)CC2)CC1 (centres unmarked) [Example 192, 3-(1-(2,3-dihydroxypropyl)-4-(4-methylcyclohexyl)-1,2,5,6-tetrahydropyridin-3-yl)-5-(4-(pyrazolo[1,5-a]pyrimidin-2-yl)phenyl)thiophene-2-carboxylic acid] | – | < 3000 nM |
| Cc1cc(-c2cc(C3=C(C4CCC(C)CC4)CCN(C)C3)c(C(=O)O)s2)ccc1NC(=O)c1cscn1 (centres unmarked) [Example 196, 3-(1-methyl-4-(4-methylcyclohexyl)-1,2,5,6-tetrahydropyridin-3-yl)-5-(3-methyl-4-(thiazole-4-carboxamido)phenyl)thiophene-2-carboxylic acid] | < 3000 nM | – |
| Cc1ccc(C2=C(c3cc(-c4ccc(NC(=O)c5cscn5)cc4)sc3C(=O)O)CCN(C)C2)cc1 [Example 202, 3-(1-methyl-5-(p-tolyl)-1,2,3,6-tetrahydropyridin-4-yl)-5-(4-(thiazole-4-carboxamido)phenyl)thiophene-2-carboxylic acid] | < 3000 nM | – |
| CN1CCC(c2cc(-c3ccc(NC(=O)c4cscn4)cc3)sc2C(=O)O)=C(c2ccc(Cl)cc2Cl)C1 [Example 201, 3-(5-(2,4-dichlorophenyl)-1-methyl-1,2,3,6-tetrahydropyridin-4-yl)-5-(4-(thiazole-4-carboxamido)phenyl)thiophene-2-carboxylic acid] | < 3000 nM | – |
| CC1CCC(C2=C(c3cc(-c4ccc(NC(=O)c5cscn5)cc4)sc3C(=O)O)CN(Cc3cnn(C)c3)CC2)CC1 (centres unmarked) [Example 193, 3-(1-((1-methyl-1H-pyrazol-4-yl)methyl)-4-(4-methylcyclohexyl)-1,2,5,6-tetrahydropyridin-3-yl)-5-(4-(thiazole-4-carboxamido)phenyl)thiophene-2-carboxylic acid] | – | < 3000 nM |
| Cc1cc(-c2cc(C3=C(C4CCC(C)CC4)CN(C)CC3)c(C(=O)O)s2)ccc1NC(=O)c1cscn1 (centres unmarked) [Example 178, 5-(3-methyl-4-(thiazole-4-carboxamido)phenyl)-3-(1-methyl-5-(4-methylcyclohexyl)-1,2,3,6-tetrahydropyridin-4-yl)thiophene-2-carboxylic acid] | < 3000 nM | – |
| CC1CCC(C2=C(c3cc(-c4ccc(-c5cc6ncccn6n5)cc4)sc3C(=O)O)CN(CCO)CC2)CC1 (centres unmarked) [Example 191, 3-(1-(2-hydroxyethyl)-4-(4-methylcyclohexyl)-1,2,5,6-tetrahydropyridin-3-yl)-5-(4-(pyrazolo[1,5-a]pyrimidin-2-yl)phenyl)thiophene-2-carboxylic acid] | – | < 3000 nM |
| CC1CCC(C2=C(c3cc(-c4ccc(NC(=O)c5cscn5)cc4)sc3C(=O)O)CN(CCO)CC2)CC1 (centres unmarked) [Example 188, 3-(1-(2-hydroxyethyl)-4-(4-methylcyclohexyl)-1,2,5,6-tetrahydropyridin-3-yl)-5-(4-(thiazole-4-carboxamido)phenyl)thiophene-2-carboxylic acid] | – | < 3000 nM |
| CC1CCC(C2=C(c3cc(-c4ccc(-c5cc6n(C)c(=O)ccn6n5)cc4)sc3C(=O)O)CCN(C)C2)CC1 (centres unmarked) [Example 185, 3-(1-methyl-5-(4-methylcyclohexyl)-1,2,3,6-tetrahydropyridin-4-yl)-5-(4-(4-methyl-5-oxo-4,5-dihydropyrazolo[1,5-a]pyrimidin-2-yl)phenyl)thiophene-2-carboxylic acid] | < 3000 nM | – |
